Read-outs that look alike come from different tables or passages of the source.
System: MOLP8 cells
Assay: MOLP8 CellEvent Caspase-3/7 Green IncuCyte live-cell apoptosis assay
Format: cell-based, human
Experimental: MCL-1 is a regulator of apoptosis and is highly over-expressed in tumor cells that escape cell death. The assay evaluates the cellular potency of small-molecule compounds targeting regulators of the apoptosis pathway, primarily MCL-1, Bfl-1, Bcl-2, and other proteins of the Bcl-2 family. Protein-protein inhibitors disrupting the interaction of anti-apoptotic regulators with BH3-domain proteins initiate apoptosis.
Activation of the apoptotic pathway was measured using the CellEvent™ Caspase-3/7 Green ReadyProbes™ Reagent (Thermo Fisher C10423, C10723). This assay produces a green fluorescent stain in cells that enter the apoptosis pathway. CellEvent® Caspase-3/7 Green reagent is a four amino acid peptide (DEVD) conjugated to a nucleic acid-binding dye that is non-fluorescent when not bound to DNA. The CellEvent® Caspase-3/7 Green reagent is intrinsically non-fluorescent, as the DEVD peptide inhibits binding of the dye to DNA. Upon activation of caspase-3/7 in apoptotic cells, the DEVD peptide is cleaved and the free dye can bind DNA, generating a bright green fluorescence. The activation of Caspase-3 and Caspase-7 is downstream of inhibition of MCL-1 or other apoptosis inhibiting proteins in cell lines that are dependent on them.
The live-cell readout on the IncuCyte permits tracking over time of the Caspase activation. […] The IncuCyte readout also allows one to normalize for cell number, as the suspension cells are hard to distribute evenly.
Signals were measured every 2 h for a duration of 22 h. The ratio of the Caspase mask to the Confluence mask, per image, as raw data, was calculated and the kinetic trace for every well was exported to Genedata Screener for analysis.
In Genedata Screener values for 6 h, 12 h, and 22 h from the kinetic traces were extracted. The values were normalized against negative controls (untreated cells). A standard dose-response analysis was performed on the normalized data.
The following data was reported at each of the following three aforementioned time points: (a) The dose-response curve, (b) The qAC50 and qAC50 Mode, and (c) Max Activity.
Cells were maintained in culture medium containing 10% Heat Inactivated (HI) FBS, 2 mM L-Glutamine and 50 μg/mL Gentamycin phenol red free RPMI-1640. Cells were split at 0.4 million/mL twice a week.
On Day 1, plates containing individual wells with test compounds at 10 mM concentration, 150 nL per well. The final concentrations range from […] compound (and no compound control) and compounds were thawed at room temperature for 1 hour. 25 μl of prewarmed medium was added into each well by multidrop (column 1, 3-22, 24), followed by addition of DMSO control (0.6% DMSO) in column 2. The plate was sealed using Breathe-Easy® sealing membrane and shaken for 30 min at room temperature to dissolve the test compound(s) in medium. The plate was then kept in the incubator for 1 hour at 37° C., 5% CO2.
MOLP8 cells in medium at […] (20000/50 μl final in assay) were prepared with CellEvent™ Caspase-3/7 Green Detection Reagent at 4 μM (2 μM final in assay). Once prepared, the cells were added to the test compound plate in an amount of 20000 and the plate was immediately placed in the IncuCyte and imaging started using following settings: 10× objective, 2 s exposure time in green channel, interval of 2 h, acquisition stopped after 22 h.
For analysis in IncuCyte, a Basic Analysis protocol was defined to calculate the “confluence” and “caspase” areas from the “Phase” and “green” images, respectively, as follows: (a) Confluence: Segmentation Adjustment 1, Hole Fill 0, Adjust Size −2, No filters (b) Caspase: Top-Hat segmentation, Radius 10, Threshold 0.3 GCU, Edge Split On with sensitivity 0, Hole Fill 0, Adjust Size 1, and filter on a minimum Area of 20 μm^2. The analyzer is trained on a sufficient number of positive and negative control wells, as well as compound treated wells, verifying that the “confluence” layer detects both live and dead (condensed) cells. […]

[1] = Homo sapiens, MOLP-8, 6 h, 6 h, read-out: MOLP8 Caspase 3/7 AC50 at 6 h
[2] = Homo sapiens, MOLP-8, 12 h, 12 h, read-out: MOLP8 Caspase 3/7 AC50 at 12 h
[3] = Homo sapiens, MOLP-8, 22 h, 22 h, read-out: MOLP8 Caspase 3/7 AC50 at 22 h

Compound	AC50 [1] [nM]	AC50 [2] [nM]	AC50 [3] [nM]	AC50 (6 h, read-out: MOLP8 Caspase 3/7 AC50 at 6 h) [nM]	AC50 (12 h, read-out: MOLP8 Caspase 3/7 AC50 at 12 h) [nM]	AC50 (22 h, read-out: MOLP8 Caspase 3/7 AC50 at 22 h) [nM]
COC[C@H]1/C(F)=C/C[C@H](C)[C@@H](C)S(=O)(=O)NC(=O)c2ccc3c(c2)N(C[C@@H]2CCN21)C[C@@]1(CCCc2cc(Cl)ccc21)CO3 [Compound 13]	520	530	560	–	–	–
CC(C)COC[C@H]1/C(F)=C/C[C@H](C)[C@@H](C)S(=O)(=O)NC(=O)c2ccc3c(c2)N(C[C@@H]2CCN21)C[C@@]1(CCCc2cc(Cl)ccc21)CO3 [Compound 15]	2430	2400	2420	–	–	–
C[C@@H]1[C@@H](C)C/C=C(\F)[C@H](CF)N2CC[C@H]2CN2C[C@@]3(CCCc4cc(Cl)ccc43)COc3ccc(cc32)C(=O)NS1(=O)=O [Compound 31]	1090	900	940	–	–	–
C[C@@H]1[C@@H](C)C/C=C(\F)[C@H](COCC(=O)O)N2CC[C@H]2CN2C[C@@]3(CCCc4cc(Cl)ccc43)COc3ccc(cc32)C(=O)NS1(=O)=O [Compound 17]	11100	10000	9610	–	–	–
C[C@@H]1[C@@H](C)C/C=C(\F)[C@H](COCC2CCC2)N2CC[C@H]2CN2C[C@@]3(CCCc4cc(Cl)ccc43)COc3ccc(cc32)C(=O)NS1(=O)=O [Compound 26]	3540	3570	3060	–	–	–
COC[C@@H]1/C=C/C[C@@H](C)[C@@H](C)S(=O)(=O)NC(=O)c2ccc3c(c2)N(C[C@@H]2CCN21)C[C@@]1(CCCc2cc(Cl)ccc21)CO3 [Compound 7]	2160	1720	1900	–	–	–
C[C@@H]1[C@@H](C)C/C=C(\F)[C@H](CO)N2CC[C@H]2CN2C[C@@]3(CCCc4cc(Cl)ccc43)COc3ccc(cc32)C(=O)NS1(=O)=O [Compound 9]	400	400	400	–	–	–
C[C@@H]1[C@@H](C)C/C=C(\F)[C@H](COCC(=O)N2CCOCC2)N2CC[C@H]2CN2C[C@@]3(CCCc4cc(Cl)ccc43)COc3ccc(cc32)C(=O)NS1(=O)=O [Compound 18]	660	570	600	–	–	–
C[C@@H]1[C@@H](C)C/C=C/C(CO)N2CC[C@H]2CN2C[C@@]3(CCCc4cc(Cl)ccc43)COc3ccc(cc32)C(=O)NS1(=O)=O (single isomer, unassigned) [Compound 10]	3070	3240	3430	–	–	–
COC[C@H]1/C=C/C[C@@H](C)[C@@H](C)S(=O)(=O)NC(=O)c2ccc3c(c2)N(C[C@@H]2CCN21)C[C@@]1(CCCc2cc(Cl)ccc21)CO3 [Compound 4]	~1310	1200	~1380	–	–	–
C[C@@H]1[C@@H](C)C/C=C(\F)[C@H](COc2ccccn2)N2CC[C@H]2CN2C[C@@]3(CCCc4cc(Cl)ccc43)COc3ccc(cc32)C(=O)NS1(=O)=O [Compound 11]	2380	2320	2520	–	–	–
Cc1nc(COC[C@H]2/C(F)=C/C[C@H](C)[C@@H](C)S(=O)(=O)NC(=O)c3ccc4c(c3)N(C[C@@H]3CCN32)C[C@@]2(CCCc3cc(Cl)ccc32)CO4)no1 [Compound 24]	390	410	400	–	–	–
C[C@@H]1[C@@H](C)C/C=C(\F)[C@H](COc2ccccn2)N2CC[C@@H]2CN2C[C@@]3(CCCc4cc(Cl)ccc43)COc3ccc(cc32)C(=O)NS1(=O)=O [Compound 12]	–	–	–	1220	1120	1330
COCCCOC[C@H]1/C(F)=C/C[C@H](C)[C@@H](C)S(=O)(=O)NC(=O)c2ccc3c(c2)N(C[C@@H]2CCN21)C[C@@]1(CCCc2cc(Cl)ccc21)CO3 [Compound 22]	550	570	620	–	–	–
C[C@@H]1[C@@H](C)C/C=C(\F)[C@H](COCCC2CCOCC2)N2CC[C@H]2CN2C[C@@]3(CCCc4cc(Cl)ccc43)COc3ccc(cc32)C(=O)NS1(=O)=O [Compound 23]	1110	1040	1150	–	–	–
C[C@@H]1[C@@H](C)C/C=C(\F)[C@H](COCC(=O)N2CC(F)(F)C2)N2CC[C@H]2CN2C[C@@]3(CCCc4cc(Cl)ccc43)COc3ccc(cc32)C(=O)NS1(=O)=O [Compound 19]	390	400	430	–	–	–
COCC1/C=C/C[C@H](C)[C@@H](C)S(=O)(=O)NC(=O)c2ccc3c(c2)N(C[C@@H]2CCCN12)C[C@@]1(CCCc2cc(Cl)ccc21)CO3 (single isomer, unassigned) [Compound 8]	2390	2490	2840	–	–	–
C[C@@H]1[C@@H](C)C/C=C(\F)[C@H](COCCCN2CCOCC2)N2CC[C@H]2CN2C[C@@]3(CCCc4cc(Cl)ccc43)COc3ccc(cc32)C(=O)NS1(=O)=O [Compound 25]	360	360	360	–	–	–
CCOC[C@H]1/C(F)=C/C[C@H](C)[C@@H](C)S(=O)(=O)NC(=O)c2ccc3c(c2)N(C[C@@H]2CCN21)C[C@@]1(CCCc2cc(Cl)ccc21)CO3 [Compound 16]	450	450	480	–	–	–

Reference: patent US20240067660A1, “MACROCYCLIC SPIROCYCLE DERIVATIVES AS MCL-1 INHIBITORS” (Janssen Pharmaceutica NV, priority 2019, published 2024)
